Data taken from PMC10702058, “Phase I dose escalation study and pilot efficacy analysis of LXI-15029, a novel mTOR dual inhibitor, in Chinese subjects with advanced malignant solid tumors” (BMC Cancer, 2023).
“Also recorded” adds a separate entry of the source.

Test: Plasma pharmacokinetics of LXI-15029 (LC-MS/MS, non-compartmental analysis)
Assay type: in vivo, human
Settings: for AUC / Cmax at 28 day / AUC(0-inf) / Cmax: human, plasma, geometric mean (coefficient of variation); for AUC / Cmax at 28 day / RacAUC (accumulation ratio) / RacCmax (accumulation ratio) / t1/2ss: multiple dose, cycle 1 day 28; for AUC(0-inf) / Cmax / CL/F / V/F: single dose, cycle 1 day 1; for RacAUC (accumulation ratio) / RacCmax (accumulation ratio) / t1/2ss / CL/F / V/F: arithmetic mean ± standard deviation
Procedure: Blood samples for PK analysis of LXI-15029 were collected on day 1 (pre-dose, 20 min, 40 min, 1 h, 1.5 h, 2 h, 3 h, 4 h, 6 h, 8 h, 12 h, 24 h, and 48 h), cycle 1 day 8 (pre-dose), cycle 1 day 15 (pre-dose), and cycle 1 day 28 (pre-dose, 20 min, 40 min, 1 h, 1.5 h, 2 h, 3 h, 4 h, 6 h, 8 h, and 12 h). The blood samples were stored at -70°C until testing. The concentration of LXI-15029 in plasma was measured using the validated liquid chromatography-tandem mass spectrometry (LC–MS/MS) method. The concentration–time information of LXI-15029 was summarized based on pre-dose and post-dose data of each patient, to explore the linearity of exposure with single dose and steady-state situations, the time to reach steady state and the predictability of single to multiple doses PK. PK parameters were calculated separately for single and repeated doses using descriptive statistics. PK analysis was performed by Covance Central Laboratory using the validated software Phoenix WinNonlin Version 8.1 (Pharsight, Mountain View, CA). A standard non-compartmental method was used to calculate the peak plasma concentration (Cmax), time to reach the Cmax (tmax), the total area under the concentration–time curve (AUC0-∞), and the elimination half-life (t1/2).

CNC(=O)c1cccc(-c2ccc3c(N4C5CCC4COC5)nc(N4CCOC[C@@H]4C)nc3n2)c1 [LXI-15029]
AUC (oral, 40 mg BID (n = 3)): 1670 ng·h/mL | Cmax at 28 day (oral, 40 mg BID (n = 3)): 1010 ng/mL | AUC (oral, 60 mg BID (n = 4)): 5730 ng·h/mL | Cmax at 28 day (oral, 60 mg BID (n = 4)): 1690 ng/mL | AUC (oral, 80 mg BID (n = 4)): 5220 ng·h/mL | Cmax at 28 day (oral, 80 mg BID (n = 4)): 2260 ng/mL | AUC (oral, 110 mg BID (n = 3)): 12900 ng·h/mL | Cmax at 28 day (oral, 110 mg BID (n = 3)): 3930 ng/mL | AUC (oral, 150 mg BID (n = 4)): 25500 ng·h/mL | Cmax at 28 day (oral, 150 mg BID (n = 4)): 5840 ng/mL | AUC(0-inf) (oral, 10 mg BID (n = 3)): 111 ng·h/mL | Cmax (oral, 10 mg BID (n = 3)): 66.5 ng/mL | AUC(0-inf) (oral, 20 mg BID (n = 3)): 898 ng·h/mL | Cmax (oral, 20 mg BID (n = 3)): 474 ng/mL | AUC(0-inf) (oral, 40 mg BID (n = 3)): 1680 ng·h/mL | Cmax (oral, 40 mg BID (n = 3)): 1010 ng/mL | AUC(0-inf) (oral, 60 mg BID (n = 4)): 3750 ng·h/mL | Cmax (oral, 60 mg BID (n = 4)): 1340 ng/mL | AUC(0-inf) (oral, 80 mg BID (n = 4)): 1870 ng·h/mL | Cmax (oral, 80 mg BID (n = 4)): 1340 ng/mL | AUC(0-inf) (oral, 110 mg BID (n = 3)): 5340 ng·h/mL | Cmax (oral, 110 mg BID (n = 3)): 2930 ng/mL | AUC(0-inf) (oral, 150 mg BID (n = 4)): 12100 ng·h/mL | Cmax (oral, 150 mg BID (n = 4)): 4140 ng/mL | RacAUC (accumulation ratio) (10 mg BID (n = 3)): 2.08 ± 1.289 | RacCmax (accumulation ratio) (10 mg BID (n = 3)): 1.96 ± 1.061 | t1/2ss (10 mg BID (n = 3)): 1.13 ± 0.080 h | RacAUC (accumulation ratio) (20 mg BID (n = 3)): 0.99 ± 0.260 | RacCmax (accumulation ratio) (20 mg BID (n = 3)): 0.75 ± 0.140 | t1/2ss (20 mg BID (n = 3)): 1.24 ± 0.167 h | RacAUC (accumulation ratio) (40 mg BID (n = 3)): 1.00 ± 0.036 | RacCmax (accumulation ratio) (40 mg BID (n = 3)): 1.02 ± 0.180 | t1/2ss (40 mg BID (n = 3)): 1.14 ± 0.250 h | RacAUC (accumulation ratio) (60 mg BID (n = 4)): 1.47 ± 0.546 | RacCmax (accumulation ratio) (60 mg BID (n = 4)): 1.37 ± 0.382 | t1/2ss (60 mg BID (n = 4)): 1.90 ± 0.197 h | RacAUC (accumulation ratio) (80 mg BID (n = 4)): 1.78 ± 0.268 | RacCmax (accumulation ratio) (80 mg BID (n = 4)): 1.28 ± 0.102 | t1/2ss (80 mg BID (n = 4)): 1.33 ± 0.068 h | RacAUC (accumulation ratio) (110 mg BID (n = 3)): 2.51 ± 0.778 | RacCmax (accumulation ratio) (110 mg BID (n = 3)): 1.37 ± 0.352 | t1/2ss (110 mg BID (n = 3)): 2.33 ± 0.857 h | RacAUC (accumulation ratio) (150 mg BID (n = 4)): 2.39 ± 0.768 | RacCmax (accumulation ratio) (150 mg BID (n = 4)): 1.36 ± 0.507 | t1/2ss (150 mg BID (n = 4)): 3.26 ± 1.247 h | absorption after oral administration (oral): absorbed rapidly; also recorded: fast absorbed | CL/F (10 mg BID (n = 3)): 99.45 ± 51.035 L/h | V/F (10 mg BID (n = 3)): 126.07 ± 40.383 L | CL/F (20 mg BID (n = 3)): 24.11 ± 11.940 L/h | V/F (20 mg BID (n = 3)): 49.56 ± 19.453 L | CL/F (40 mg BID (n = 3)): 24.58 ± 7.772 L/h | V/F (40 mg BID (n = 3)): 42.35 ± 25.602 L | CL/F (60 mg BID (n = 4)): 16.47 ± 4.677 L/h | V/F (60 mg BID (n = 4)): 45.88 ± 14.063 L | CL/F (80 mg BID (n = 4)): 48.30 ± 25.396 L/h | V/F (80 mg BID (n = 4)): 92.88 ± 47.995 L | CL/F (110 mg BID (n = 3)): 24.35 ± 17.791 L/h | V/F (110 mg BID (n = 3)): 43.99 ± 17.319 L | CL/F (150 mg BID (n = 4)): 12.57 ± 2.022 L/h | V/F (150 mg BID (n = 4)): 34.75 ± 12.576 L
